Drawing on US8957074B2 (Novartis AG, priority 2010, dated 2015), this text covers IC50 for 18 compounds.

The structures appear in SMILES notation. Like-named read-outs stand apart in the source and are kept apart here.

The target in one assay is CDK4/cyclin D1 (Homo sapiens (Human), UniProt P11802). In words: CDK4/cyclin D1 enzymatic activity assay (TR-FRET, phosphorylation of pRb at Ser780). It is filed as biochemical. The following applies: 0.3 nM CDK4/cyclin D1, 150 nM biotin-pRb (773-924), 3 μM ATP, 60 min at 22° C.; read-out: Biochemical CDK4 enzyme IC50. The method, boiled down:
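Phosphorylation at pRb Ser780, detected by TR-FRET, gave IC50s and kinetics. Enzyme: baculovirus/Sf21-expressed human CDK4/cyclin D1. ATP at 3 μM initiated the reaction; EDTA (pH 8.0) stopped it after 60 min at 22° C.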
On the technique in general: In TR-FRET formats the signal depends on donor and acceptor labels being close together.

For the next assay, the target named is CDK1/cyclin B (Homo sapiens (Human), UniProt P06493). In words: CDK1/cyclin B enzymatic activity assay (IMAP-FP). In kind it is biochemical. An excerpt: CDK1/Cyclin B Enzymatic Activity Assay
A 384-well microtiter IMAP-FP™ (Molecular Devices Trade Mark Technology) endpoint assay was used for CDK1/cyclin B kinase activity measurements. The same assay was used for IC50 determination of small molecule inhibitors.

Assay [1] deals with phosphorylation of pRb at the Ser780 site in JeKo-1 mantle cell lymphoma cells. Description: CDK4 cellular assay: ELISA of pRb phosphorylation at Ser780 in JeKo-1 cells. It is filed as cell-based. The following applies: Homo sapiens. A general note: An ELISA detects its analyte on a solid surface through an enzyme-linked reagent.
Where [2] appears, read: […] CDK1/cyclin B, 100 nM Tamra Histone-H1 peptide, 20 μM ATP, 120 min at room temperature, read-out: Biochemical CDK1 enzyme IC50.
The mark [3] stands for this setting: JeKo-1 cells, p-pRb % inhibition adjusted with total pRb levels, read-out: Normalized cellular ppRb inhibition IC50.
[4] abbreviates: JeKo-1 cells, p-pRb Ser780 ELISA, non-normalized, read-out: Cellular ppRb inhibition IC50.
Setting [5] is: JeKo-1, JeKo-1 cells, p-pRb % inhibition adjusted with total pRb levels, read-out: Normalized cellular ppRb inhibition IC50.
[6] abbreviates: JeKo-1, JeKo-1 cells, p-pRb Ser780 ELISA, non-normalized, read-out: Cellular ppRb inhibition IC50.
The mark [7] stands for this setting: 0.25 nM CDK1/cyclin B, 100 nM Tamra Histone-H1 peptide, 20 μM ATP, 120 min at room temperature, read-out: Biochemical CDK1 enzyme IC50.

Chain of CDK4/cyclin D1 (P11802 whole entry): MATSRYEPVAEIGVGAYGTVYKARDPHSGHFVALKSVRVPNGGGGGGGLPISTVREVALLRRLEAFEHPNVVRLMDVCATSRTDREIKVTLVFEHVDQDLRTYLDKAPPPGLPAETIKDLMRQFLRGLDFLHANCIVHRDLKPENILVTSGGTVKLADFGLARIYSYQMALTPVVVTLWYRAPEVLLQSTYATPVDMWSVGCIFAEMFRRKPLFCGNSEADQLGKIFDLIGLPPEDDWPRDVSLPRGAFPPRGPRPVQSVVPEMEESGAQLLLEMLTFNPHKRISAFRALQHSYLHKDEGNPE
Chain of CDK4/cyclin D1 (P24385 whole entry partner): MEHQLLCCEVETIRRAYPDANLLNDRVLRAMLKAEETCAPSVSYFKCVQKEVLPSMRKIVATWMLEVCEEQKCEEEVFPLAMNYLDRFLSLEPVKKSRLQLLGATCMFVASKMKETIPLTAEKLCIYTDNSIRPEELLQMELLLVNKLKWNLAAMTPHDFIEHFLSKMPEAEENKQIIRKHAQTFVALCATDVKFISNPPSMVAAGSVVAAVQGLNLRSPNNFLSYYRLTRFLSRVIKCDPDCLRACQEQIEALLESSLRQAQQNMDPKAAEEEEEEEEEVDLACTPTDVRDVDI
Chain of CDK1/cyclin B (P06493 whole entry, species assumed): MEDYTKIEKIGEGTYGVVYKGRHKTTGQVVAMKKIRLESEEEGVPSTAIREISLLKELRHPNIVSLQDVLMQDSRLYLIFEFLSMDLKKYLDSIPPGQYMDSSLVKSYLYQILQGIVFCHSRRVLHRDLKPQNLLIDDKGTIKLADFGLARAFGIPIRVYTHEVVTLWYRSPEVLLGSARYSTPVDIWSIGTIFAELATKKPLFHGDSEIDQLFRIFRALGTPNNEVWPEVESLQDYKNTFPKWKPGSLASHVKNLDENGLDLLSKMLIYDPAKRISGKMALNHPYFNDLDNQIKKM
Chain of CDK1/cyclin B (P14635 whole entry partner, species assumed): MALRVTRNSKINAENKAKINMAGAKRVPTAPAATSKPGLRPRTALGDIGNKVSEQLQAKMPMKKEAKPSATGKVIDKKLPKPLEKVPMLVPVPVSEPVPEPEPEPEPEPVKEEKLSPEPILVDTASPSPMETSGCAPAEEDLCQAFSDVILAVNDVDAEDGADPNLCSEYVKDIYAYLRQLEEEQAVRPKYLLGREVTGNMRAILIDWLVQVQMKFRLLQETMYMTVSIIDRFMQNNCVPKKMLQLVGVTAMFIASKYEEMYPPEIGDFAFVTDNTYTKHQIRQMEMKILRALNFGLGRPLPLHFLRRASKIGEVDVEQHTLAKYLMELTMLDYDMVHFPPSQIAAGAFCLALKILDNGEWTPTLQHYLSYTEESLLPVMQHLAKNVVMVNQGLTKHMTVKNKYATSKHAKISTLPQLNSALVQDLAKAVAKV

What is called IC50 is the concentration that gives 50% inhibition. Take `CN(C)C(=O)c1cc2cnc(Nc3ccc(C(=O)N4CC5CNCC(C4)O5)cn3)nc2n1C1CCCC1` [Example 47, 7-Cyclopentyl-2-[5-(9-oxa-3,7-diaza-bicyclo[3.3.1]nonane-3-carbonyl)-pyridin-2-ylamino]-7H-pyrrolo[2,3-d]pyrimidine-6-carboxylic acid dimethylamide]: the half-inhibitory concentration (IC50) is 30 nM at CDK4/cyclin D1, more than 15000 nM on CDK1/cyclin B (setting [2]), 352 nM in assay [1] (setting [3]) and 315 nM in assay [1] (setting [4]).

For the compound `CN(C)C(=O)c1cc2cnc(Nc3ccc(N4CCN5CCCCC5C4=O)cn3)nc2n1C1CCCCC1` (stereo not drawn) [Example 100, 7-Cyclohexyl-2-[5-(1-oxo-octahydro-pyrido[1,2-a]pyrazin-2-yl)-pyridin-2-ylamino]-7H-pyrrolo[2,3-d]pyrimidine-6-carboxylic acid dimethylamide], the IC50 at CDK4/cyclin D1 is 35 nM; on CDK1/cyclin B (setting [2]), more than 15000 nM; in assay [1] (setting [3]), 218 nM; in assay [1] (setting [4]), 188 nM.

As for `CN(C)C(=O)c1cc2cnc(Nc3ccc(N4CC5(CCNCC5)OC4=O)cn3)nc2n1C1CCCC1` [Example 119, 7-cyclopentyl-N,N-dimethyl-2-(5-(2-oxo-1-oxa-3,8-diazaspiro[4.5]decan-3-yl)pyridin-2-ylamino)-7H-pyrrolo[2,3-d]pyrimidine-6-carboxamide], the IC50 at CDK4/cyclin D1 is 12 nM; at CDK1/cyclin B (setting [2]), more than 15000 nM; in assay [1] (setting [3]) it was 72 to 83 nM; in assay [1] (setting [4]), 26 to 47 nM.

For `CN(C)C(=O)c1cc2cnc(Nc3ccc(C(=O)N4C[C@H]5CNC[C@@H](C4)C5O)cn3)nc2n1C1CCCCCC1` (stereo partly drawn) [Example 2, 7-cycloheptyl-2-(5-((1R,5S)-9-hydroxy-3,7-diazabicyclo[3.3.1]nonane-3-carbonyl)pyridin-2-ylamino)-N,N-dimethyl-7H-pyrrolo[2,3-d]pyrimidine-6-carboxamide], the half-inhibitory concentration (IC50) is 5 nM on CDK4/cyclin D1, more than 15000 nM at CDK1/cyclin B (setting [2]), 84 nM in assay [1] (setting [5]) and 66 nM in assay [1] (setting [6]).

`CN(C)C(=O)c1cc2cnc(Nc3ccc(N4CC5CCC(C4)N5)nn3)nc2n1C1CCCCC1` [Example 126, 7-Cyclohexyl-2-[6-(3,8-diaza-bicyclo[3.2.1]oct-3-yl)-pyridazin-3-ylamino]-7H-pyrrolo[2,3-d]pyrimidine-6-carboxylic acid dimethylamide]: the IC50 at CDK4/cyclin D1 is 10 to 31 nM; on CDK1/cyclin B (setting [2]) it was more than 15000 nM; in assay [1] (setting [5]), 45 to 49 nM; in assay [1] (setting [6]), 23 to 32 nM.

On to `CN(C)C(=O)c1cc2cnc(Nc3ccc(C(=O)N4CC5CCC(C4)N5)cn3)nc2n1C1C[C@H]2CC[C@@H]1C2` (stereo partly drawn) [Example 76, 7-(1R,2R,4S)-Bicyclo[2.2.1]hept-2-yl-2-[5-(3,8-diaza-bicyclo[3.2.1]octane-3-carbonyl)-pyridin-2-ylamino]-7H-pyrrolo[2,3-d]pyrimidine-6-carboxylic acid dimethylamide], for which the IC50 was 21 nM at CDK4/cyclin D1, more than 15000 nM against CDK1/cyclin B, 216 nM in assay [1] (setting [5]) and 160 nM in assay [1] (setting [6]).

In the case of `CN(C)C(=O)c1cc2cnc(Nc3ccc(N4C[C@H]5CC[C@@H](CC4=O)N5)cn3)nc2n1C1CCCC1` [Example 123, 7-Cyclopentyl-2-[5-((1R,6S)-4-oxo-3,9-diaza-bicyclo[4.2.1]non-3-yl)-pyridin-2-ylamino]-7H-pyrrolo[2,3-d]pyrimidine-6-carboxylic acid dimethylamide], the IC50 was 3 nM at CDK4/cyclin D1, 29300 nM at CDK1/cyclin B (setting [2]), 8 to 99 nM in assay [1] (setting [5]) and 5 to 16 nM in assay [1] (setting [6]).

On to `CN(C)C(=O)c1cc2cnc(Nc3ccc(C(=O)N4CC5CCC(C4)N5)cn3)nc2n1-c1cccc(C(C)(C)C)c1` [Example 54, 7-(3-tert-Butyl-phenyl)-2-[5-(3,8-diaza-bicyclo[3.2.1]octane-3-carbonyl)-pyridin-2-ylamino]-7H-pyrrolo[2,3-d]pyrimidine-6-carboxylic acid dimethylamide], for which the IC50 at CDK4/cyclin D1 is 3 nM; at CDK1/cyclin B (setting [2]) it was 1990 nM; in assay [1] (setting [5]), 8 to 47 nM; in assay [1] (setting [6]) it was 6 to 33 nM.

For `CN(C)C(=O)c1cc2cnc(Nc3ccc(N4C[C@H]5CC[C@@H](CC4=O)N5)cn3)nc2n1C1CCC1` [Example 136, 7-Cyclobutyl-2-[5-((1R,6S)-4-oxo-3,9-diaza-bicyclo[4.2.1]non-3-yl)-pyridin-2-ylamino]-7H-pyrrolo[2,3-d]pyrimidine-6-carboxylic acid dimethylamide], the half-maximal inhibitory concentration (IC50) at CDK4/cyclin D1 was 54 nM; at CDK1/cyclin B (setting [2]), more than 15000 nM; in assay [1] (setting [5]), 218 nM; in assay [1] (setting [6]) it was 77 nM.

Regarding `CN(C)C(=O)c1cc2cnc(Nc3ccc(N4CC5(CC6CCC(C5)N6)OC4=O)cn3)nc2n1C1CCCC1` [Example 101, 7-cyclopentyl-N,N-dimethyl-2-(5-((1R,3r, 5S)-2′-oxo-8-azaspiro[bicyclo[3.2.1]octane-3,5′-oxazolidine]-3′-yl)pyridin-2-ylamino)-7H-pyrrolo[2,3-d]pyrimidine-6-carboxamide], the IC50 on CDK4/cyclin D1 is 20 nM; on CDK1/cyclin B (setting [2]) it was more than 15000 nM; in assay [1] (setting [3]), 110 nM; in assay [1] (setting [4]), 58 nM.

With `Cc1cc(Nc2ncc3cc(C(=O)N(C)C)n(C4CCCC4)c3n2)ncc1C(=O)N1CC2CCC(C1)N2` [Example 51, 7-Cyclopentyl-2-[5-(3,8-diaza-bicyclo[3.2.1]octane-3-carbonyl)-4-methyl-pyridin-2-ylamino]-7H-pyrrolo[2,3-d]pyrimidine-6-carboxylic acid dimethylamide], the IC50 on CDK4/cyclin D1 is 23 nM; at CDK1/cyclin B (setting [7]), more than 15000 nM; in assay [1] (setting [3]) it was 60 nM; in assay [1] (setting [4]), 28 nM.

Turning to `CN(C)C(=O)c1cc2cnc(Nc3ccc(C(=O)N4CC5CCC(C4)N5C(=O)C4CCCN4)cn3)nc2n1C1CCCC1` (stereo not drawn) [Example 61, 7-Cyclopentyl-2-{5-[8-(pyrrolidine-2-carbonyl)-3,8-diaza-bicyclo[3.2.1]octane-3-carbonyl]-pyridin-2-ylamino}-7H-pyrrolo[2,3-d]pyrimidine-6-carboxylic acid dimethylamide], the IC50 at CDK4/cyclin D1 was 20 nM; at CDK1/cyclin B (setting [2]), more than 15000 nM; in assay [1] (setting [3]), 53 nM; in assay [1] (setting [4]) it was 21 nM.

For the compound `CN(C)C(=O)c1cc2cnc(Nc3ccc(N4C[C@H]5CC[C@@H](CC4=O)N5)cn3)nc2n1C1CCCCC1` [Example 133, 7-Cyclohexyl-2-[5-((1R,6S)-4-oxo-3,9-diaza-bicyclo[4.2.1]non-3-yl)-pyridin-2-ylamino]-7H-pyrrolo[2,3-d]pyrimidine-6-carboxylic acid dimethylamide], the IC50 was less than 5 nM on CDK4/cyclin D1, 13300 nM on CDK1/cyclin B (setting [2]), 7 nM in assay [1] (setting [5]) and 5 nM in assay [1] (setting [6]).

Consider `CN1C[C@@H]2CC(=O)N(c3ccc(Nc4ncc5cc(C(=O)N(C)C)n(C6CCCCCC6)c5n4)nc3)C[C@@H]2C1` [Example 93, 7-cycloheptyl-N,N-dimethyl-2-(5-((3aS,7aR)-2-methyl-6-oxotetrahydro-1H-pyrrolo[3,4-c]pyridin-5(6H,7H,7aH)-yl)pyridin-2-ylamino)-7H-pyrrolo[2,3-d]pyrimidine-6-carboxamide], for which the IC50 at CDK4/cyclin D1 was less than 5 nM; at CDK1/cyclin B (setting [2]), more than 15000 nM; in assay [1] (setting [5]), 20 nM; in assay [1] (setting [6]), 8 nM.

In the case of `CC(C)N1C2CCC1CN(C(=O)c1ccc(Nc3ncc4cc(C(=O)N(C)C)n(C5CCCC5)c4n3)nc1)C2` [Example 29, 7-cyclopentyl-2-(5-(8-isopropyl-3,8-diazabicyclo[3.2.1]octane-3-carbonyl)pyridin-2-ylamino)-N,N-dimethyl-7H-pyrrolo[2,3-d]pyrimidine-6-carboxamide], the IC50 at CDK4/cyclin D1 is 14 to 17 nM; at CDK1/cyclin B (setting [2]), more than 15000 nM; in assay [1] (setting [3]) it was 20 to 48 nM; in assay [1] (setting [4]), 24 to 34 nM.

Consider `CN(C)C(=O)c1cc2cnc(Nc3ccc(C(=O)N4CC5C[C@]5(N)C4)cn3)nc2n1C1CCCC1` (single isomer, unassigned) [Example 16], for which the half-maximal inhibitory concentration (IC50) on CDK4/cyclin D1 is 15 nM; on CDK1/cyclin B (setting [7]), more than 15000 nM; in assay [1] (setting [5]), 233 nM; in assay [1] (setting [6]) it was 92 nM.

In the case of `CN(C)C(=O)c1cc2cnc(Nc3ccc(N4CC5(CC4=O)CC4CCC(C5)N4)cn3)nc2n1C1CCCOC1` (stereo not drawn) [Example 120, N,N-dimethyl-2-(5-(5′-oxo-8-azaspiro[bicyclo[3.2.1]octane-3,3′-pyrrolidine]-1′-yl)pyridin-2-ylamino)-7-(tetrahydro-2H-pyran-3-yl)-7H-pyrrolo[2,3-d]pyrimidine-6-carboxamide], the IC50 at CDK4/cyclin D1 is 66 nM; at CDK1/cyclin B (setting [2]), more than 15000 nM; in assay [1] (setting [3]), 1030 nM; in assay [1] (setting [4]) it was 677 nM.

Consider `CN(C)C(=O)c1cc2cnc(Nc3ccc(C(=O)N4[C@@H]5CNC[C@H]4COC5)cn3)nc2n1C1CCCC1` [Example 40, 2-(5-((1R,5S)-3-oxa-7,9-diazabicyclo[3.3.1]nonane-9-carbonyl)pyridin-2-ylamino)-7-cyclopentyl-N,N-dimethyl-7H-pyrrolo[2,3-d]pyrimidine-6-carboxamide], for which the IC50 was 36 to 52 nM on CDK4/cyclin D1, more than 15000 nM at CDK1/cyclin B (setting [2]), 51 to 222 nM in assay [1] (setting [3]) and 40 to 99 nM in assay [1] (setting [4]).
